Columns and labels:
[1] = target: T1, PR (Homo sapiens, UniProt P06401); experiment: Co-transfection assay, PR agonist mode; assay type: cell-based; design: expressed in transfected cells; host or cells: CV-1 cells
T1 sequence (P06401 1-933): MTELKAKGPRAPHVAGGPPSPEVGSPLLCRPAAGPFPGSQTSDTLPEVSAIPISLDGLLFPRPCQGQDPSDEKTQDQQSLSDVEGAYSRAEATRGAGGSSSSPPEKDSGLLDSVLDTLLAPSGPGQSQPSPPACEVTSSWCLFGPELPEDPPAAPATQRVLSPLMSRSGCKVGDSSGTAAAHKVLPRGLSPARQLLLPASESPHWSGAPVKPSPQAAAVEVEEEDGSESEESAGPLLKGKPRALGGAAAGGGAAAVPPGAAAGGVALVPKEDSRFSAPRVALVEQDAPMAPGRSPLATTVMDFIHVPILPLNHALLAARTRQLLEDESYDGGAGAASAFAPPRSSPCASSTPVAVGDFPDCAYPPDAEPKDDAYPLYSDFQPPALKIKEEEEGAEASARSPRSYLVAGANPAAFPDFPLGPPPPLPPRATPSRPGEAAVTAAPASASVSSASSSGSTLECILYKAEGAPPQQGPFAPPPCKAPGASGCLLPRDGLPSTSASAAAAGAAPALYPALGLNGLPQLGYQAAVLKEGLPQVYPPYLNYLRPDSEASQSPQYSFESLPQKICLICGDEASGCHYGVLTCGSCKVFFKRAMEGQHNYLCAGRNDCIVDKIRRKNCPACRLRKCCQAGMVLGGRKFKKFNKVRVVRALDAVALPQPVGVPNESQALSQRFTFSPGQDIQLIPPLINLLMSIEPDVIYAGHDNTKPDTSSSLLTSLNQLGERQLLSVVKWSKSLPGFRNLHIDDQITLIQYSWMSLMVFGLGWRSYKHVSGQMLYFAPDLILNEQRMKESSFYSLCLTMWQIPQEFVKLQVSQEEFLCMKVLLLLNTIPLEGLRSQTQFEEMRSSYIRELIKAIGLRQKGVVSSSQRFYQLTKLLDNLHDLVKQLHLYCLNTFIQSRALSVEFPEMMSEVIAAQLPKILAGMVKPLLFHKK
Procedure: (§1) CV-1 cells (African green monkey kidney fibroblasts) were cultured in the presence of Dulbecco's Modified Eagle Medium (DMEM) supplemented with 10% charcoal resinstripped fetal bovine serum then transferred to 96-well microtiter plates one day prior to transfection.
(§2) Three to four replicates were used for each sample.
(§3) After 40 hours, the cells were washed with PBS, lysed with a Triton X-100-based buffer and assayed for LUC and β-Gal activities using a luminometer or spectrophotometer, respectively. For each replicate, the normalized response (NR) was calculated as: LUC response/β-Gal rate where β-Gal rate = β-Gal•1x10^-5/β-Gal incubation time.

[2] = target: T2, ER (Homo sapiens, UniProt P03372); experiment: Co-transfection assay, ER antagonist mode; assay type: cell-based
T2 construct: expressed in transfected cells; host or cells: CV-1 cells
Procedure: as §1, §2, §3

[3] = target: T2, ER; experiment: Co-transfection assay, ER agonist mode; assay type: cell-based
Procedure: as §1, §2, §3

[4] = target: T3, human AR (Homo sapiens, UniProt P10275); experiment: cell-based; assay type: binding
T3 construct: expressed in transfected cells; host or cells: CV-1 cells (African green monkey kidney fibroblasts), transient calcium phosphate transfection
T3 sequence (P10275 1-920): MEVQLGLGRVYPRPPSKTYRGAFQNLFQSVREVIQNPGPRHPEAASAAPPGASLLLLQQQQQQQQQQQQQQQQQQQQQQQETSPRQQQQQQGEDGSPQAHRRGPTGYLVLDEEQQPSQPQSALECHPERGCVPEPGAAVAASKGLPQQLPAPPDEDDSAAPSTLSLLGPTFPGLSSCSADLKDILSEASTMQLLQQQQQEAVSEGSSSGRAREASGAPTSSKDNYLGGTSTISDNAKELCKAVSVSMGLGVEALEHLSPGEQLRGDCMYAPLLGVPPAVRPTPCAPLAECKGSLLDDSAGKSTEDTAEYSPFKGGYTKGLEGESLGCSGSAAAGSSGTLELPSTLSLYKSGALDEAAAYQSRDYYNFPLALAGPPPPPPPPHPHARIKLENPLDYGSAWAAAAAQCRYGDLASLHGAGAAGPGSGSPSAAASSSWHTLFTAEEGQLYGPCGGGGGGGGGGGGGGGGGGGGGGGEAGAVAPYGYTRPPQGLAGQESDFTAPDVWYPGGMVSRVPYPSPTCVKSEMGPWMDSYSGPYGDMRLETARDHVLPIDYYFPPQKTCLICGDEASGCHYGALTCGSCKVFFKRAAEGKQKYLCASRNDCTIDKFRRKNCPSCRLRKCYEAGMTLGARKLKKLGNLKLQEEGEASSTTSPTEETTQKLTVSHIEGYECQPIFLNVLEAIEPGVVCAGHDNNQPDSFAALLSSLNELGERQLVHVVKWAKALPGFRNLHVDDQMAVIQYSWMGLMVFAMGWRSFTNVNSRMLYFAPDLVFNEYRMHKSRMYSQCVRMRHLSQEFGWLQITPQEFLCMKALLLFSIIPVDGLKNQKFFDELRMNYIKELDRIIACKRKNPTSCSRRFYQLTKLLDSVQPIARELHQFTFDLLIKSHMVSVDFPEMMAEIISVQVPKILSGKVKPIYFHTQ

[5] = target: T4, GR (Homo sapiens, UniProt P04150); experiment: cell-based
T4 sequence (P04150 1-777): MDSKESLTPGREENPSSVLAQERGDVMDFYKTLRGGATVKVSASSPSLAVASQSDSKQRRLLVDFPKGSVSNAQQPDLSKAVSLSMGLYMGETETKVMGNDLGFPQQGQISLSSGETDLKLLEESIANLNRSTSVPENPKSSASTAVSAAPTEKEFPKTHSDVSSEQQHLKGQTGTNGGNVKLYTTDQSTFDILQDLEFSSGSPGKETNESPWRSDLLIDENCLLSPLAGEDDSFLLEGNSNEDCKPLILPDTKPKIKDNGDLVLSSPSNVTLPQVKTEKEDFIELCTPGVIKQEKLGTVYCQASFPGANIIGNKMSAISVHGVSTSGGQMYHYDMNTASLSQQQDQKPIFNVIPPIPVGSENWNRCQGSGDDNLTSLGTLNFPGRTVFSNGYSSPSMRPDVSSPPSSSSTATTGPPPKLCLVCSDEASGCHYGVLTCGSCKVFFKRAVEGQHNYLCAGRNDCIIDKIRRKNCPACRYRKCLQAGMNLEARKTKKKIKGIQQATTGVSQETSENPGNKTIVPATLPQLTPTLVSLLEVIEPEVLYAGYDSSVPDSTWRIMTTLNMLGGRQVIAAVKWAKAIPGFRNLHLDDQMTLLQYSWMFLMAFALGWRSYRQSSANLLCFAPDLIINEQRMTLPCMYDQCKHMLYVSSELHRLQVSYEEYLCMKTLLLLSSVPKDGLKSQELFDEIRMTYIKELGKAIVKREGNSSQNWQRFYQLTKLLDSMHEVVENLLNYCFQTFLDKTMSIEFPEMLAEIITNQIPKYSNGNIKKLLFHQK
Procedure: as §1, §2, §3

[6] = target: T3, human AR; experiment: cell-based; assay type: cell-based
Text: The co-transfection assay provides a method for identifying functional agonists and partial agonists which mimic, or antagonists which inhibit, the effect of native hormones, and quantifying their activity for responsive IR proteins. In this regard, the co-transfection assay mimics an in vivo system in the laboratory. Importantly, activity in the co-transfection assay correlates very well with known in vivo activity, such that the co-transfection assay functions as a qualitative and quantitative predictor of a tested compounds in vivo pharmacology. See, e.g., T. Berger et al. 41 J. Steroid Biochem. Molec.
as §1
The reporter plasmid, MTV-LUC, contains the cDNA for firefly luciferase (LUC) under control of the mouse mammary tumor virus (MTV) long terminal repeat, a conditional promoter containing an androgen response element. See e.g, Berger et al. supra. In addition, pRS-β-Gal, coding for constitutive expression of E. colβ-galactosidase (β-Gal), was included as an internal control for evaluation of transfection efficiency and compound toxicity.
as §2, §3

[7] = target: T1, PR; experiment: cell-based

T2 sequence (P03372 whole entry): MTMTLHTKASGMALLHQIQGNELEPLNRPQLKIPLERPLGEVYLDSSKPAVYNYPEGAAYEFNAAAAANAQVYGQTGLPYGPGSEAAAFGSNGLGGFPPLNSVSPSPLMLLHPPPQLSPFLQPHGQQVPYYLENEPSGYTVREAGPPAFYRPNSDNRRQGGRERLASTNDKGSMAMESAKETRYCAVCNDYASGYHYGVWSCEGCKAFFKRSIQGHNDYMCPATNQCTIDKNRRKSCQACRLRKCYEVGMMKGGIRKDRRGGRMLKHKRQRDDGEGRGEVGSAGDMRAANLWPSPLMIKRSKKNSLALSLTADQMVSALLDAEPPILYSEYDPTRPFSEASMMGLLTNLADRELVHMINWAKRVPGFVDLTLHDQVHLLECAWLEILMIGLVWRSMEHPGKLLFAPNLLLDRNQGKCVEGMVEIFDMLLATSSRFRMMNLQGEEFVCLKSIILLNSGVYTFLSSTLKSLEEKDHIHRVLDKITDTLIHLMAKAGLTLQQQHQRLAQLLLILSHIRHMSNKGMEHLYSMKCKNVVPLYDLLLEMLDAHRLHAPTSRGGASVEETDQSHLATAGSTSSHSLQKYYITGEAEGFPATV

CC1(C)CCc2cc3c(C(F)(F)F)c(F)c(=O)[nH]c3cc2N1 [Compound 105, 7-Fluoro-1,2,3,4-tetrahydro-2,2-dimethyl-6-trifluoromethyl-8-pyridono[5,6-g]quinoline]
EC50 [1]: > 10 µM
IC50 [2]: 0.034 µM
EC50 [3]: > 10 µM
Ki [4]: 0.026 µM
IC50 [5]: > 10 µM
AR Antagonist CV-1 Cells Efficacy (%) ([6]; % of maximal inhibition, fixed DHT at EC50, na = not active): 31%
AR agonist/antagonist profile (in words) ([6]; co-transfection assay, summary of Tables 1-2): mixed AR agonists/antagonists
AR Agonist CV-1 Cells Efficacy (%) ([6]; percent maximal response relative to reference agonist DHT, na = not active): 48%

Cn1c(=O)cc(C(F)(F)F)c2cc3c(cc21)N1CCCC1(C)CC3 (racemic) [Compound 103, (R/S)-6,7,7a,11-Tetrahydro-1,7a-dimethyl-4-trifluoromethyl-2-pyridono[5,6-g]pyrrolidino[1,2-a]quinoline]
EC50 [1]: > 10 µM
IC50 [2]: > 10 µM
EC50 [3]: > 10 µM
IC50 [5]: > 10 µM

C[C@]12CCC(=O)C[C@@H]1CC[C@@H]1[C@@H]2CC[C@]2(C)[C@@H](O)CC[C@@H]12 [DHT, dihydrotestosterone, reference compound]
EC50 [1]: > 10 µM
IC50 [7]: 1.8 µM
